Data: patent publication US11318206B2, “Compounds and methods for trans-membrane delivery of molecules” (Aposense Ltd., priority 2014, dated 2022)
Entries after “also recorded” stand apart in the source; their conditions may differ.

Columns and labels:
3T3 cells = test: Delivery of 58-mer dsDNA Conjugate into 3T3 cells, ELISA reader (Example 8); assay type: cell-based, murine; settings: Cy3 58-mer dsDNA, two MNMs
Description: (§1) 3T3 cells and C26 cells were grown and prepared as described in Example 5 above. Cells were incubated for 1, 2, and 24 hours with a Conjugate comprising a 58-mer double-stranded (ds)DNA, linked to Cy3 fluorophore, and lined to two Apo-Si—C4 moieties. Two concentrations of the Conjugate were tested: 40 nM and 100 nM. Analysis comprised fluorescent microscopy and signal quantification by ELISA reader, as described in Example 5 above. An identical 58-mer dsDNA, not linked to E moieties, served as Control.

3T3-EGFP cells [1] = test: Structure/function analysis of polarity: uptake into 3T3-EGFP cells, FACS; assay type: cell-based, mouse; settings: Cy3 58-mer DNA conjugate, 40 nM
Description: For this purpose, two analogous Conjugates were constructed and evaluated: • (i). A Conjugate of dsDNA, linked to E and E′, each has the structure as set forth in Formula (VIIa); designated Apo-Si—C4: […]
Both these MNM moieties were linked to a 58-mer DNA oligonucleotide, labeled with the Cy3-fluorophore, and were subjected to FACS analysis.
One day before the experiment, 3T3-EGFP cells in the exponential growth phase were plated in 6-well plates, at a density of 0.2-0.5×10^5 cells/well, with DMEM complete medium, without antibiotics. Each of the Cy3-labeled oligonucleotides (with or without the MNMs) was diluted in 500 μl/well of Opti-Mem, and added to the cells, at a final concentration of 40 nM. Delivery of the Conjugates was evaluated at 2-24 hours of incubation. Following the incubation period, cells were trypsinized, supplemented with Hank's Buffered Salt Solution (HBSS buffer; Biological Industries, Israel) and centrifuged for 5 min at 1100 rpm. […] Detection and quantification of the Cy3-positive cell population were performed using measurements of the fluorescence intensity in the cells incubated with the Apo-Si-4C Conjugate, relative to that of the cells incubated with the Control A Conjugate.

C26 cells = test: Delivery of 58-mer dsDNA Conjugate into C26 cells, ELISA reader (Example 8); assay type: cell-based, murine; settings: Cy3 58-mer dsDNA, two MNMs
Description: as §1

3T3-EGFP cells [2] = test: Uptake of Conjugate into 3T3-EGFP cells with dipole potential modulators phloretin or 6-KC; assay type: cell-based, mouse
Source text: Phloretin is an inhibitor of the membrane dipole potential and the related IMEF, while 6-keto-cholestanol (6-KC) is a potent enhancer of the IMEF). Therefore, a potential relationship between the effects of the dipole potential modulators phloretin or 6-KC, and the uptake level of the above Conjugate of the Invention (comprising the Apo-Si—C4 MNM, linked to dsDNA, of the sequence: Sense:/5′-MNM/TT/iCy3/[…] (SEQ ID. No. 9); Anti-sense:/5′-MNM/[…] (SEQ ID. No. 10); wherein Cy3 is a red fluorophore); was examined.
One day before the experiment, 3T3-EGFP cells in the exponential growth phase were plated in 6-well plates, at a density of 5×10^5 cells/well, with DMEM complete medium, without antibiotics. Cells were incubated with phloretin 750 μM at 37° C., or 6-KC 100 μM at 37° C., for one hour. The 6-KC was then washed away, while the phloretin was kept in the medium. The Conjugate as described above was diluted in 500 μl/well of Opti-Mem, and added to the above cells, at a final concentration of 40 nM for two hours. Delivery of the Conjugate was evaluated at 2 hours post transfection. At that time point, cells were trypsinized, supplemented with Hank's Buffered Salt Solution (HBSS buffer; Biological Industries, Israel) and centrifuged for 5 min at 1200 rpm. Cells were then re-suspended with Hank's Buffered Salt Solution, and subjected to analysis using FACSAria III Cell Sorter (BD Biosciences, San Jose, Calif., USA), utilizing the Cell Diva software. For each sample, a total of 10^4 events were collected.

EGFP gene = EGFP gene silencing in primary culture of hepatocytes of transgenic mice; assay type: cell-based, mouse; settings: EGFP dsRNA, two MNMs, complex with Histone H2A (2:1 Histone/RNA); 40 nM; 72 hours
Description: Double-stranded RNA sequence, as specified in Example 7 was attached to two MNMs according to Formula (VIIa), wherein a=2, and k=1, designated Apo-Si—C4. The conjugate (40 nM) was then incubated with the histone 2A protein (Histone H2A, Molecular Weight 14 kDa; New England Biolabs, Inc.) for 30 minutes (at a 2:1 Histone/RNA ratio) for generation of RNA+MNM+protein complex. The complex was then incubated with cells of primary culture of hepatocytes of transgenic mice, expressing the EGFP gene. After 72 hours, fluorescence of the EGFP signal was quantified utilizing an ELISA reader, as described in Example 7. […] As evident from the results, this complex was capable of effectively crossing the cell membranes, and moreover, exerting a beneficial biological performance in gene silencing. By comparison to the performance of the Control complex, which was devoid of MNMs, the observed results can be attributed solely to the MNMs of the invention.

[3] = Stability under oligonucleotide de-protection conditions, HPLC/MS; assay type: physicochemical; settings: ammonium hydroxide at 65° C., samples at 15 minutes, 1 and 2 hours
Source text: Synthesis of the Conjugates of the Invention customarily involves protecting the nucleobases of the synthesized oligonucleotides by chemical groups. For example, adenine is often protected by a benzoyl protecting group, guanine by isobutyryl, and cytosine by acetyl. These protecting groups should be removed at the end of synthesis, in order to obtain a functional oligonucleotide. This removal is customarily performed in strong basic conditions. For example, the standard protocol of IDT (Iowa, USA) for removal of the protecting groups during synthesis of oligonucleotides comprises incubation with ammonium hydroxide at 65° C. degrees, for 2 hours. In order to evaluate whether the Compound of the Invention can sustain de-protection in these harsh conditions, a model system was constructed, based on the following Model Compound A, having the following structure:
Two mg of this compound were incubated in the above standard conditions used for deprotection. Samples were drawn after 15 minutes, 1 and 2 hours incubation, and evaluated by HPLC/MS, exploring and analyzing the formation of new peaks. […] Therefore, this analogue of the compound of the Invention manifested stability in these relatively harsh basic conditions.

Row | Compound | Ratio of signal intensity of the Conjugate versus control dsDNA devoid of MNMs (3T3 cells; 40 nM) | Ratio of signal intensity of the Conjugate versus control dsDNA devoid of MNMs (3T3 cells; 100 nM) | Cy3 fluorescent signal in cells (FACS) (3T3-EGFP cells [1]; 24 hours of incubation) | Cy3 fluorescent signal in cells (FACS) (3T3-EGFP cells [1]; two hours of incubation) | Ratio of signal intensity of the Conjugate versus control dsDNA devoid of MNMs (C26 cells; 40 nM) | Ratio of signal intensity of the Conjugate versus control dsDNA devoid of MNMs (C26 cells; 100 nM) | Uptake by cells after 6-keto-cholestanol (Cy3 fluorescence microscopy) (3T3-EGFP cells [2]; 40 nM, 2 hours, pre-incubation with 6-KC 100 μM for one hour) | Cells labeled (FACS) (3T3-EGFP cells [2]; Cy3 dsDNA, MNMs, 40 nM, 2 hours, no modulator) | Cells manifesting binding of the Conjugate (FACS) (3T3-EGFP cells [2]; Cy3 dsDNA, MNMs, 40 nM, 2 hours, phloretin 750 μM) | Uptake by cells after phloretin (flow cytometry) (3T3-EGFP cells [2]; pre-incubation with phloretin) | Reduction of the EGFP signal vs control complex without MNMs (EGFP gene) | Degradation under de-protection conditions [3]
1 | [2H]CCCCOc1ccc2c(c1)CCC1C2CCC2(C)C(OCCCOC(C(F)(F)F)(C(F)(F)F)C(F)(F)F)CCC12 (stereo not drawn) [Apo-Si—C4] | 104 fold | 101 fold | further augmented | strong Cy-3 fluorescent signal | 80 fold | 72 fold | markedly higher uptake; also recorded: markedly increased uptake | 68% | 1.5% | marked reduction in the uptake | 76% | –
2 | CCCCCCN(C(=O)Oc1ccccc1)[C@H]1CCSSC1 [Compound A] | – | – | – | – | – | – | – | – | – | – | – | no signs of degradation
